Columns and labels:
Assay type in all cases: cell-based, human
[1] = tested on: UVA-irradiated HaCaT cells; experiment: TUNEL assay (UVA-induced apoptosis); details: 500 nM 24 hours prior to UVA 15 J/cm^2, vs UVA alone
Method: The apoptosis can induce DNA double-strand breaks to generate a DNA fragment, To examine the effect of the ergothioneine on the UVA-induced apoptosis, an apoptotic cell death is measured using a terminal deoxyucleotidyl transferase-meditated dUTP-fluorescein nick end-labeking (TUNEL) assay, and protein expressions of apoptosis-related proteins, Caspase-3, Caspase-9, Bax and Bcl-2, are measured using a Western blot analysis. Therefore, the aforementioned methods in this example can analyze whether pretreating with the ergothioneine improves the UVA-induced apoptosis. A chromosome breakage represents an initial stage of a […]. The TUNEL assay is based on a presence of nicks in the DNA which can be identified by terminal deoxynucleotidyl transferase (TdT) at 3′ OH ends, ad the 3′ OH ends bind to dUTPs that are secondarily labeled with a fluorescent marker. After a coloration, the cells suffered the apoptosis can be identified. The HaCaT cells are incubated with or without the ergothioneine for 24 hours, wherein the concentration of the ergothioneine is 500 nM. After incubation, the HaCaT cells are exposed to the UVA (15 J/cm^2), and then cultured for 4 hours, Then, the HaCaT cells are incubated with TUNEL reaction buffer. The stained cells are visualized using the fluorescence microscope and photographed. […] FIG. 5-(B) is the quantitative diagram of the TUNEL assay.

[2] = tested on: HaCaT cells; experiment: Comet assay (DNA damage); details: for Toxicity Scale 0 (comets in class 0) / Toxicity Scale 1 (comets in class 1) / Toxicity Scale 2 (comets in class 2) / Toxicity Scale 3 (comets in class 3) / Toxicity Scale 4 (comets in class 4): per 100 comets
From the text: The exposure of the UVA can cause a DNA damage. To examine the effect of the ergothioneine on the UVA-induced DNA damage, we use a comet assay to analyze the DNA damage. The comet assay involves an encapsulation of the cells in a low-melting-point agarose suspension, the cells lysis in alkaline (pH>13) conditions, a short-term electrophoresis of the suspended lysed cells, and a stained DNA of an electrophoretic stripe using the fluorescent dye. The term “comet” refers to a pattern of a DNA migration through the electrophoresis gel, wherein the DNA migration is caused by a DNA cleavage fragment of the damaged cell released from its nucleus, and the DNA cleavage fragment moves faster than the nucleus of a non-damaged cell in an electric field and results in structure resembling the comet. […] Then, the HaCaT cells are performed the comet assay and stained by red fluorescent dye. The pattern of the nucleus of the damaged cell resembles the comet in the comet assay, which is caused by the DNA cleavage fragment of the damaged cell. In contrast, the pattern of the nucleus of the normal cell, which has non-DNA cleavage fragment, is spherical in the comet assay. […] In FIG. 4 and Table 1, the UVA irradiation (15 J/cm^2) for 4 hours triggers the DNA breakage of the nucleus shown as the tail. The overall score of the group treated with the UVA irradiation alone is 356.3±2.1. […] Therefore, the ergothioneine can inhibit the DNA damage and has a protective property.

[3] = tested on: Nrf2 knockdown HaCaT cells; experiment: TUNEL apoptosis in siRNA-transfected HaCaT cells
Method: The siRNA transfection includes steps as follows. The HaCaT cells are seeded in a 6-well plate with 4×10^5 cells/well and then maintained at 37° C. in the humidified atmosphere of 5% CO2 untill the time of the transfection. The day after reaching 40-60% confluence, the culture medium is replaced with 1 mL of FBS-free and antibiotic-free culture medium in each well, and the HaCaT cells are transfected with a siNrf2 or a control siRNA by using Lipofectamine 2000 (Invitrogen, U.S.A.) for 4-6 hours. After the incubation for 4-6 hours, the HaCaT cells are washed with the culture medium supplemented with 10% FBS 2-3 times, and then cultured in the culture medium supplemented with 10% FBS for 12-16 hours.

[4] = tested on: Nrf2; experiment: Western blot of Nrf2 signaling pathway associated proteins (Nrf2, Keap-1, HO-1, NQO-1, γ-GCLC)
Method: The effect of the ergothioneine on expressions of Nrf2 protein and downstream proteins of the HaCaT cells is monitored by the Western blot analysis. The detected downstream proteins are heme oxygenase-1 (HO-1) γ-glutamylcysteine ligase catalytic subunit (γ-GCLC) and NAD(P)H: quinone acceptor oxidoreductase 1 (NQO-1). The HaCaT cells are incubated with or without the ergothioneine for 1 hour or 4 hours, wherein the concentration of the ergothioneine is 125 nM, 250 nM and 500 nM, respectively. After incubation, the HaCaT cells are suspended in a lysis buffer to collect the proteins. FIG. 7 illustrates the effect of the ergothioneine on the expressions of the Nrf2 signaling pathway associated proteins of the HaCaT cells.
In addition, we examine the effect of the ergothioneine on the expressions of the Nrf2 and the Nrf2 pathway associated proteins of the HaCaT cells treated with the UVA irradiation. The HaCaT cells are incubated with or without the ergothioneine for 24 hours, wherein the concentration of the ergothioneine is 125 nM, 250 nM and 500 nM, respectively. After incubation, the HaCaT cells are exposed to the UVA (15 J/cm^2), and then cultured for 1 hour or 4 hours. Next, the HaCaT cells are suspended in the lysis buffer to collect the proteins, and the protein expressions are measured by the Western blot analysis. FIG. 8 illustrates the effect of the ergothioneine on the expressions of the Nrf2 signaling pathway associated proteins of the UVA-irradiated HaCaT cells. FIG. 8-(A) represents the Western blot analysis results of total Nrf2 and Keap-1 protein levels, wherein the HaCaT cells are pretreated with the ergothioneine (125-500 nM), and then exposed to the UVA for 1 hour. FIG. 8-(B) represents the Western blot analysis results of the HO-1 the NQO-1 and the γ-GCLC proteins, wherein the HaCaT cells are pretreated with the ergothioneine (125-500 nM), and then exposed to the UVA for 4 hour.

[5] = 125-500 nM 24 hours pretreatment, UVA 15 J/cm^2, 4 hours

C[N+](C)(C)[C@@H](Cc1c[nH]c(=S)[nH]1)C(=O)[O-] [ergothioneine, 2-mercapto histidine trimethylbetain]
amount of TUNEL fluorescence (apoptosis) [1]: enormously reduced
Total Damage (overall comet score, 0-400) ([2]; 250 nM + 15 J/cm^2 UVA): 144 ± 10
Toxicity Scale 0 (comets in class 0) ([2]; 250 nM + 15 J/cm^2 UVA): 20 ± 1
Toxicity Scale 1 (comets in class 1) ([2]; 250 nM + 15 J/cm^2 UVA): 27 ± 6
Toxicity Scale 2 (comets in class 2) ([2]; 250 nM + 15 J/cm^2 UVA): 52 ± 9
Toxicity Scale 3 (comets in class 3) ([2]; 250 nM + 15 J/cm^2 UVA): 0 ± 0
Toxicity Scale 4 (comets in class 4) ([2]; 250 nM + 15 J/cm^2 UVA): 0 ± 0
Total Damage (overall comet score, 0-400) ([2]; 250 nM, no UVA): 14 ± 4
Toxicity Scale 0 (comets in class 0) ([2]; 250 nM, no UVA): 88 ± 4
Toxicity Scale 1 (comets in class 1) ([2]; 250 nM, no UVA): 10 ± 4
Toxicity Scale 2 (comets in class 2) ([2]; 250 nM, no UVA): 2 ± 2
Toxicity Scale 3 (comets in class 3) ([2]; 250 nM, no UVA): 0 ± 0
Toxicity Scale 4 (comets in class 4) ([2]; 250 nM, no UVA): 0 ± 0
Total Damage (overall comet score, 0-400) ([2]; 500 nM + 15 J/cm^2 UVA): 59.0±7.0
Total Damage (overall comet score, 0-400) ([2]; 500 nM + 15 J/cm^2 UVA, listed as EGT): 59 ± 7
Toxicity Scale 0 (comets in class 0) ([2]; 500 nM + 15 J/cm^2 UVA): 49 ± 7
Toxicity Scale 1 (comets in class 1) ([2]; 500 nM + 15 J/cm^2 UVA): 43 ± 8
Toxicity Scale 2 (comets in class 2) ([2]; 500 nM + 15 J/cm^2 UVA): 8 ± 1
Toxicity Scale 3 (comets in class 3) ([2]; 500 nM + 15 J/cm^2 UVA): 0 ± 0
Toxicity Scale 4 (comets in class 4) ([2]; 500 nM + 15 J/cm^2 UVA): 0 ± 0
Total Damage (overall comet score, 0-400) ([2]; 500 nM, no UVA): 22 ± 6
Toxicity Scale 0 (comets in class 0) ([2]; 500 nM, no UVA): 81 ± 6
Toxicity Scale 1 (comets in class 1) ([2]; 500 nM, no UVA): 16 ± 7
Toxicity Scale 2 (comets in class 2) ([2]; 500 nM, no UVA): 3 ± 2
Toxicity Scale 3 (comets in class 3) ([2]; 500 nM, no UVA): 0 ± 0
Toxicity Scale 4 (comets in class 4) ([2]; 500 nM, no UVA): 0 ± 0
UVA-induced apoptosis (TUNEL) ([3]; Nrf2 siRNA, ergothioneine pretreatment, UVA): unable to improve the UVA-induced apoptosis
apoptosis (TUNEL) ([3]; control siRNA, ergothioneine prior to UVA, vs UVA alone): significantly decreased
Nrf2 expression (Nrf2/Keap-1 ratio) ([4]; 125-500 nM 24 hours pretreatment, UVA 15 J/cm^2, 1 hour): dramatically increases the Nrf2 expression
expression of HO-1 protein [4, 5]: also increased
expression of NQO-1 protein [4, 5]: also increased
expression of γ-GCLC protein [4, 5]: also increased
total Nrf2 protein level ([4]; 125-500 nM for 1 hour, no UVA, especially with 500 nM): increases the total Nrf2 protein level
expression of HO-1 protein ([4]; 125-500 nM for 4 hours, no UVA): also increased
expression of NQO-1 protein ([4]; 125-500 nM for 4 hours, no UVA): also increased
expression of γ-GCLC protein ([4]; 125-500 nM for 4 hours, no UVA): also increased
